Results taken from US20120115896A1, “ISOGENIC HUMAN CELL LINES COMPRISING MUTATED CANCER ALLELES AND PROCESS USING THE CELL LINES” (priority 2008, published 2012).

Columns and labels:
Assay type in all cases: cell-based, human
[1] = test system: panel of cell lines derived from glioblastoma, breast, ovarian, prostate, endometrial and colorectal carcinomas carrying genetic alterations in PIK3CA or PTEN; test: Antiproliferative effects of everolimus on a panel of cancer cell lines; details: FIG. 7A
Description: The present pharmacogenomic analysis of non-transformed cells carrying cancer alleles point to a relationship between the occurrence of PIK3CA mutations and sensitivity to everolimus. The present inventors next assessed whether and to what extent these findings might be applicable to human cancer cells in which mutations in the PIK3CA pathway naturally occur alongside with additional genetic alterations. To this end a panel of cell lines derived from glioblastoma, breast, ovarian, prostate, endometrial and colorectal carcinomas which are known to carry genetic alterations in PIK3CA or PTEN (FIG. 7) were treated with everolimus. […] Everolimus-resistant cells (such as HT-29, HCT 116 and DLD-1) carried mutations in both PIK3CA and KRAS/BRAF.

[2] = test system: hTERT-HME1 cells of the indicated genotype (WT, PIK3CA KI, KRAS G13D, DKI KRAS G13D + PIK3CA H1047R); test: Cell cycle analysis by flow cytometry (propidium iodide) after everolimus 500 nM for 48 h; details: for cells in G1 phase, Mean / cells in G2/M phase, Mean / cells in S phase, Mean / cells in G2 + S, Mean / cells in Sub-G1, Mean: FACS
Procedure: (A) CFSE-labelled cells were analyzed by flow cytometry at the indicated time-points (top panels). The maximum fluorescence intensity for all samples was recorded at day 0 (depicted in filled black). […] (B) Cells of the indicated genotype were incubated with everolimus 500 nM for 48 h, after which cell cycle was analyzed by flow cytometry. No increase of the subG1 apoptotic fraction of cells was observed upon treatment. Representative data from 3 independent experiments are shown.
For time-course experiments, on the initial day hTERT-HME1 cells were labelled with 3 μM CFSE (5-(and -6)-carboxyfluorescein diacetate, succinimidyl ester, Invitrogen C1157, Milan, Italy) in PBS in the dark for 30 minutes. After washing and recording baseline fluorescence, cells were plated in media containing 1% FBS and 2 ng/mL EGF, and treatment with everolimus was initiated, replenishing the drug on a daily basis. For cell cycle analysis, trypsinized cells were washed with PBS and cell nuclei DNA were stained with propidium iodide (PI) for at least 120 minutes using a commercial kit (DNA con 3, Consul T.S., Orbassano, Italy).
All fluorescence levels were detected by flow cytometry on a FACSCalibur (Becton Dickinson, Milan, Italy) and analyzed using CellQuest software. The number of events collected for each sample varied between 15,000 and 50,000. After doublets exclusion, an extended analysis of the DNA content and calculations of the percentage of cells in each phase of the cell cycle were performed on ModFit Lt software (Verity Software House, Topsham, Me.).
To shed light on the preferential effect induced by everolimus in PIK3CA KI clones, the present inventors also performed FACS analysis. […] The data shown in table 7 are the results of hTERT-HME1 cells of the indicated genotype incubated for 48 h with everolimus (500 nM), wherein the effect on cell cycle was analyzed by FACS. […] Accordingly, the proportions of cells in the S- and G2/M-phases decreased. Means of at least 4 independent experiments are shown. Significance by paired t test was taken at p<0.01.
To further explore the role of mutant KRAS on everolimus' response, the present inventors recapitulated the genetic milieu of the HCT116 colorectal cancer cells in hTERT-HME1 cells, by introducing via homologous recombination both KRAS G13D and PIK3CA H1047R alleles in their genome. This approach generated double-KI (DKI) cells, in which each mutation is expressed under the corresponding gene's own promoter. […] Means of at least 4 independent experiments are shown. Significance by paired t test was taken at p<0.01.

[3] = test system: phosphorylation of p70S6K, RpS6, AKT and MAPK in HCT 116 and KRAS WT/- HKe-3 cells; test: Biochemical effects of everolimus: immunoblot and ELISA of phospho-proteins; details: everolimus 500 nM, 30 minutes
Procedure: (A, D) After 30 minutes'treatment with everolimus 500 nM, HCT 116 parental cells and its derivative KRAS WT/-HKe-3 clone were lysed and immunoblotted with the anti-phospho-P70S6K, totalP70S6K, phospho-MAPK and total MAPK (B, C, E) The same lysates were used also for ELISA measurements of total AKT, phosphoAKT (Thr308), phosphoAKT (Ser473), total RpS6 and phosphoRpS6 levels. Numbers indicate the ratio of phosphorylated protein related to total protein levels and are normalized respect to the untreated (NT) HCT 116 cells.
SDS PAGE was performed using Invitrogen Precasted gels (Invitrogen Carlsbad, Calif.); western blotting transfer onto Hybond-C Extra membranes (Amersham, Amersham Biosciences, Uppsala, Sweden) was done following standard methods. The primary antibodies used for immunoblotting were: Anti-AKT (Cell Signaling, Technology, Danvers, Mass.); Anti-phospho-AKT S473 (Cell Signaling, Technology, Danvers, Mass.); Anti-Actin and Anti-Vinculin (Sigma-Aldrich, St. Louis, Mo.); Phospho-p44/42 Map kinase (Thr202/Tyr204) (Cell Signaling, Technology, Danvers, Mass.); Anti-phospho-EGFR Receptor (Tyr 1068) and Anti EGFR Receptor (Cell Signaling Technology, Danvers, Mass.).

[4] = hTERT-HME1 DKI KRAS G13D + PIK3CA H1047R, propidium iodide
[5] = hTERT-HME1 KI KRAS G13D, propidium iodide

CO[C@H]1C[C@@H]2CC[C@@H](C)[C@@](O)(O2)C(=O)C(=O)N2CCCC[C@H]2C(=O)O[C@H]([C@H](C)C[C@@H]2CC[C@@H](OCCO)[C@H](OC)C2)CC(=O)[C@H](C)/C=C(\C)[C@@H](O)[C@@H](OC)C(=O)[C@H](C)C[C@H](C)/C=C/C=C/C=C/1C [everolimus, Everolimus]
response of tumor cells with PIK3CA pathway alterations but no mutation in KRAS/BRAF [1]: sensitive
response of tumor cells carrying mutations in both PIK3CA and KRAS/BRAF ([1]; such as HT-29, HCT 116 and DLD-1): resistant
cell cycle response of DKI cells (KRAS G13D and PIK3CA H1047R) [2]: cell cycle response comparable to that observed in the parental WT population
cells in G1 phase, Mean [2, 4]: 77.5
cells in G2/M phase, Mean [2, 4]: 10.5
cells in S phase, Mean [2, 4]: 12.0
cells in G1 phase, Mean [2, 5]: 75.7
cells in G2/M phase, Mean [2, 5]: 13.1
cells in S phase, Mean [2, 5]: 11.2
cells in G1 phase, Mean ([2]; hTERT-HME1 KI PIK3CA E545K): 78.5
cells in G2 + S, Mean ([2]; hTERT-HME1 KI PIK3CA E545K): 21.5
cells in G2/M phase, Mean ([2]; hTERT-HME1 KI PIK3CA E545K): 12.7
cells in S phase, Mean ([2]; hTERT-HME1 KI PIK3CA E545K): 8.8
cells in Sub-G1, Mean ([2]; hTERT-HME1 KI PIK3CA E545K): 0.9
cells in G1 phase, Mean ([2]; hTERT-HME1 KI PIK3CA H1047R): 88.7
cells in G2 + S, Mean ([2]; hTERT-HME1 KI PIK3CA H1047R): 11.3
cells in G2/M phase, Mean ([2]; hTERT-HME1 KI PIK3CA H1047R): 4.9
cells in S phase, Mean ([2]; hTERT-HME1 KI PIK3CA H1047R): 6.4
cells in Sub-G1, Mean ([2]; hTERT-HME1 KI PIK3CA H1047R): 0.6
cells in G1 phase, Mean ([2]; hTERT-HME1 WT): 75.7
cells in G2 + S, Mean ([2]; hTERT-HME1 WT): 24.3
cells in G2/M phase, Mean ([2]; hTERT-HME1 WT): 14.2
cells in S phase, Mean ([2]; hTERT-HME1 WT): 10.1
cells in Sub-G1, Mean ([2]; hTERT-HME1 WT): 0.9
apoptosis ([2]; vehicle versus drug-treated, FIG. 18B): almost undetectable
MAPK phosphorylation in drug treated HKe-3 cells compared to parental ([3]; FIG. 15A): higher level of MAPK phosphorylation
levels of activated RpS6 ([3]; FIG. 15E): decreased accordingly
phosphorylation of p70S6K ([3]; parental and KRAS D13 deleted cells, FIG. 15D): abrogated
